Laboratory results reported in patent US20230201360A1, “Composition and Kit for colonization in gut of external probiotics through bioorthogonal click chemistry” (RESEARCH & BUSINESS FOUNDATION SUNGKYUNKWAN UNIVERSITY, priority 2021, published 2023).

Tests used:
[1] = tested on: HT29-MTX-e12 cells; experiment: Azide group expression in goblet cell-like cells, DBCO-Cy5.5 fluorescence imaging; assay type: cell-based; conditions: 100 μM, 24 hours; DBCO-Cy5.5 labeling
Description: (§1) In order to evaluate the introduction of an azide group (—N3) (i.e., a functional group for bioorthogonal click chemistry) to the intestinal mucosa, HT29-MTX-e12 cells, which are goblet cell-like cells in vitro, were used. An azide group was introduced to the cell surface through glycan manipulation using tetraacetylated N-azidoacetyl-D-mannosamine (ManNAz) and tetraacetylated N-azidoacetyl-D-galactosamine (GalNAz), which are derivatives of mannosamine and galactosamine, which is a molecule used for mucosal formation. Specifically, HT29-MTX-e12 cells were cultured for 24 hours in DMEM medium containing 100 μM ManNAz or GalNAz. The azide group introduced was subjected to fluorescent labeling by culturing for 30 minutes in a medium containing 10 μM DBCO-Cy5.5, washed twice with physiological saline at 4° C., reacted with 20 μM Hoechst 33342 for 15 minutes, and then the cell nuclei were stained and observed.
In the case of introduction of an azide group into the intestinal mucosa, after introduction of an azide group into the HT29-MTX-e12 goblet cell-like cell line by the method of Example 2, the binding ability with DBCO-Cy5.5 was evaluated.

[2] = tested on: HT29-MTX-e12 cells; experiment: Western blot analysis of azide group introduced into goblet cell-like cells; assay type: cell-based; conditions: various concentrations, 24 hours
Description: For quantitative evaluation of an azide group according to the precursor treatment concentration, HT29-MTX-e12 cells in 10 mL medium without sugar or containing various concentrations of GalNAz or ManNAz were inoculated onto 60 mm×15 mm polystyrene tissue culture plates at a density of 2×10^6 cells per plate, and cultured for 24 hours. The cells were obtained after washing with PBS (pH 7.4), lysed in a cell lysis solution (50 mM Tris, pH 7.2, 150 mM NaCl, 1% Triton X-100, 200 ng/mL phenylmethylsulfonyl fluoride) containing phosphatase inhibitor cocktail (St. Louis, Mo., USA), and 10 μL of phosphine-PEG-biotin (Waltham, Mass., Thermofisher Scientific) per 100 μL of the lysate was reacted at room temperature for 12 hours. Then, after subjecting the resultant to electrophoresis on 10% SDS polyacrylamide gel to be transferred to Immobilon P membrane (Millipore Corporation, Billerica, Mass., USA), treated with 1,000:1 diluted HRP-streptavidin (Waltham, Mass., Thermofisher Scientific) at room temperature for 2 hours, and confirmed by developing on Pierce™ECL Western blotting substrate (Waltham, Mass., Thermofisher Scientific).

[3] = tested on: HT29-MTX-e12 cells; experiment: Binding of DBCO-Bac. to azide-introduced goblet cell-like cells (fluorescence images, flow cytometry); assay type: cell-based; conditions: for binding ability to DBCO-Bac. increase compared to the control group: cells treated with 100 μM precursor; for green fluorescence (distribution of DBCO-Bac. in the culture dish) compared to the control group: low-magnification fluorescence imaging
Description: as §1
When DBCO-Bac. is treated on goblet cell-like cells into which an azide group has been introduced in Experimental Example 3, red fluorescence representing an azide group and green fluorescence representing DBCO-Bac. appear clearly as shown in FIG. 5A.

[4] = tested on: HT29-MTX-e12 cells; experiment: Binding of DBCO-Bac. in 3-dimensional intestinal mucosal simulation model; assay type: cell-based; conditions: 100 μM precursor; 3D fluorescence image
Description: To evaluate the binding ability of DBCO-Bac. to the mucosa in a three-dimensional environment, mucosal formation of HT29-MTX-e12 cells was promoted through N-[N-(3,5-difluorophenacetyl)-L-alanyl]-S-phenylglycine t-butyl ester (DAPT) stimulation, and a 3D intestinal mucosal simulation model was prepared using the same. HT29-MTX-e12 cells were inoculated in DMEM medium and cultured for 24 hours, treated with 20 μM DAPT 4 times at intervals of once every 2 days, and from the second DAPT treatment, treated with the culture medium containing 100 μM GalNAz or ManNAz three times at intervals of once every two days. Then, the resultant was treated with DBCO-Bac. at a concentration of 5×10^8/mL.
Additionally, in order to evaluate the binding ability of DBCO-Bac. to the intestinal mucosa in a three-dimensional environment, a three-dimensional intestinal mucosal simulation model was prepared using HT29-MTX-e12 cells in which mucosal formation was promoted through DAPT stimulation by the method of Example 4 above.

[5] = tested on: mouse intestinal mucosa; experiment: Azide group expression in mouse intestinal mucosa after oral administration (DBCO-Cy5.5 staining); assay type: in vivo, mice; conditions: 5 mg per animal, duodenum, jejunum, ileum, colon
Description: To confirm the expression level and expression time of an azide group in the intestinal mucosa, GalNAz or ManNAz was orally administered to mice, and the expression level of an azide group in the intestinal mucosa was evaluated through the binding ability with DBCO-Cy5.5. 5 mg of GalNAz or ManNAz was orally administered per animal, the intestinal tissue was divided into 4 parts (duodenum, jejunum, ileum, and colon) of the small intestine and extracted after 12 hours, 24 hours, 36 hours, and 48 hours at intervals of 12 hours, and dipped in 20 μM of each DBCO-Cy5.5 solution and stained.
In the case of introducing an azide group into the mouse intestinal mucosa, after oral administration of GalNAz or ManNAz to mice by the method of Example 5 above, the expression level of an azide group in the intestinal mucosa was evaluated through the binding ability with DBCO-Cy5.5.

[6] = tested on: mouse intestinal mucosa; experiment: Bac. remaining in mouse intestinal mucosa after simultaneous treatment with two DBCO-modified bacterial groups; assay type: in vivo, mice; conditions: oral precursor, simultaneous treatment with both DBCO-modified bacteria
Description: In addition, in order to evaluate the intestinal mucosal binding ability of DBCO-Bac., GalNAz or ManNAz per animal was orally administered to 5 mg mice, and 24 hours thereafter, DBCO-Bac. was administered at a concentration of 10^9/mL.
In order to confirm whether bioorthogonal click chemistry of DBCO and an azide group is applicable when several groups of bacteria were administered at once as in probiotics, GalNAz and ManNAz were each orally administered to mice by the method of Example 5, and simultaneously treated with Bifidobacterium longum modified with DBCO and Lactobacillus acidophilus modified with DBCO, and the fluorescence value of Bac. remaining in the intestinal mucosa was confirmed.

| Molecule | red fluorescence (azide group) in HT29-MTX-e12 cells [1] | generation of an azide group [2] | binding ability to DBCO-Bac. increase compared to the control group [3] | green fluorescence (distribution of DBCO-Bac. in the culture dish) compared to the control group [3] | green fluorescence (binding ability to DBCO-Bac.) compared to the control group [4] | time after oral administration at which fluorescence intensity (azide expression) was strongest [5] | amounts of DBCO-modified Bifidobacterium longum and Lactobacillus acidophilus remaining in the intestinal mucosa compared to the control group [6] |
| --- | --- | --- | --- | --- | --- | --- | --- |
| CC(=O)OCC1OC(OC(C)=O)C(NC(=O)CN=[N+]=[N-])[C@@H](OC(C)=O)[C@H]1OC(C)=O (stereo partly drawn) [GalNAz, tetraacetylated N-azidoacetyl-D-galactosamine] | red fluorescence appeared | increased depending on the concentration | about 400 times | increased | increased significantly | about 24 hours | higher |
| tetraacetylated N-azidoacetyl-D-mannosamine [ManNAz] | red fluorescence appeared | increased depending on the concentration | about 500 times | increased | increased significantly | about 24 hours | significantly higher |
